Here are results for two compounds from patent EP1561465A2, “Methods of use of fluoroquinolone compounds against bacteria” (LG Life Sciences, Ltd., priority 1999, dated 2001).

Holding throughout (assay type): cell-based
One experiment has as its system P. mirabilis. The experiment can be described thus: MIC and MBC by microdilution in Mueller-Hinton broth, uropathogens. The protocol:
MICs and MBCs were determined by a microdilution method with Mueller-Hinton broth. An inoculum of 1.3-9.4 x 10^5 colony forming units (CFU) per ml was used.
Strains included a reference strain E. coli ATCC 25922, susceptible to nalidixic acid (Nal-S) and the following clinical isolates obtained from complicated UTI patients: E. coli (resistant to nalidixic acid), K. pneumoniae, P. mirabilis , P. aeruginosa, […] (3 strains) and Enterococcus faecalis (2 strains).

The test system of another experiment is S. aureus. The experiment can be described thus: Urinary bactericidal titers (UBT) and AUBTC of volunteers' urine. As to conditions: urine after gemifloxacin 320 mg or ofloxacin 400 mg.
The subject of experiment [1] is anaerobic cocci and Gram positive pathogens. The experiment can be described thus: organism not typed. The following applies: read-out: MIC90s.
Experiment [2] relates to enteropathogenic bacterial strains. The experiment can be described thus: MIC by agar dilution (NCCLS M7-A4), enteropathogenic isolates pooled. The following applies: all enteropathogenic isolates except C. jejuni. Background: In agar dilution, organisms are placed on agar that contains the substance at set levels.
Where [3] appears, read: P. mirabilis Laboratory No. 414, inoculum 2.5 CFU 10^5/ml.
[4] abbreviates: Proteus mirabilis, P. mirabilis Laboratory No. 414, inoculum 2.5 CFU 10^5/ml.
[5] abbreviates: S. aureus (13) Laboratory No. 636.
The mark [6] stands for this setting: S. aureus (16) Laboratory No. 83.
Where [7] appears, read: S. aureus (16) Laboratory No. 161.

Converted amounts (≈) assume the structure as drawn.

Broadly, the MBC is the smallest concentration meeting the test's criterion for killing. As to `CC1COc2c(N3CCN(C)CC3)c(F)cc3c(=O)c(C(=O)O)cn1c23` (centres unmarked) [Ofloxacin, ofloxacin], the MIC against P. mirabilis (setting [3]) and against P. mirabilis (Proteus mirabilis) was 0.125 µg/mL (≈ 0.346 µM) each time. The compound also displayed an MBC with P. mirabilis (setting [4]) of 0.125 µg/mL (≈ 0.346 µM). Also, the “AUBTC (range)” value in the experiment with S. aureus (setting [5]) was 105 (0-279); with S. aureus (setting [6]), 387 (162-570); in the experiment with S. aureus (setting [7]) it was 39 (0-78).
For the compound `CO/N=C1\CN(c2nc3c(cc2F)c(=O)c(C(=O)O)cn3C2CC2)CC1CN` (racemic) [Gemifloxacin, (R,S)-7-(3-aminomethyl-4-methoxyiminopyrrolidin-1-yl)-1-cyclopropyl-6-fluoro-4-oxo-1,4-dihydro-1,8-naphthyridine-3-carboxylic acid], the MIC in experiment [1] is 0.125 to 2 µg/mL (≈ 0.321 to 5.14 µM); against P. mirabilis (setting [3]), 0.125 µg/mL (≈ 0.321 µM); in the experiment on P. mirabilis (Proteus mirabilis), 0.125 µg/mL (≈ 0.321 µM). For the same compound, in the experiment on P. mirabilis (setting [4]), the MBC was 0.25 µg/mL (≈ 0.642 µM). For the same compound, the “AUBTC (range)” value in the experiment on S. aureus (setting [5]) is 108 (0-408); in the experiment on S. aureus (setting [6]) it was 540 (246-834); in the experiment with S. aureus (setting [7]), 60 (0-144). The “concentration inhibiting 100% of isolates” value in experiment [2] is 0.25 mg/L.
